The assay has as its system Plasmodium falciparum. Description: GSK_TCMDC: Inhibition of Plasmodium falciparum 3D7 in whole erythrocytes, using parasite LDH activity as an index of growth. The assay is classed as functional, organism-based. The note with it: Plasmodium falciparum, 3D7.
On to `Cc1nc(N)nc(N)c1-c1cccc(Cl)c1`, for which the XC50 amounted to 1.17 µM.

In turn, `CC(C)CCN1C(=O)C(NC(=O)Oc2ccccc2)C(=O)N(CC23CC4CC(CC(C4)C2)C3)c2ccccc21` (stereo not given) came in with an XC50 of 0.752 µM.

`CCC1CN2CCc3cc(OC)c(OC)cc3C2CC1CC1NCCc2cc(OC)c(OC)cc21` (stereo not given) gave an XC50 of 0.145 µM.

`N#Cc1cccc(-c2cccc(C(=O)NC3CCC(CCN4CCc5ccc(C#N)cc5CC4)CC3)c2)c1` (stereo not given) returned an XC50 of 0.265 µM.

As for `CCOC(=O)C1=C(C)N=c2sc(=Cc3cc(Cl)ccc3O)c(=O)n2C1c1ccc(OC)cc1` (stereo not given), the XC50 came to 0.746 µM.

Molecule `CCCN(CCC)CCOC(=O)C(OCC)(c1ccccc1)c1ccccc1` had an XC50 of 0.871 µM.

The molecule `COc1ccc2nccc(N3CCC(NCCNS(=O)(=O)c4ccc5c(c4)NC(=O)CS5)C3)c2n1` (stereo not given) displayed an XC50 of 0.901 µM.

`COc1cc2nc(N3CCC(CNC(=O)c4ccc(NC(=O)c5ccc(Cl)cc5)cc4)CC3)nc(N)c2cc1OC` showed an XC50 of 0.264 µM.

In turn, `Cc1cc(Cl)ccc1NC(=O)Nc1ccc2nccc(N3CCN(C)CC3)c2c1` displayed an XC50 of 0.394 µM.

In turn, `CCNc1cc(C(=O)N[C@@H](Cc2ccccc2)[C@H](O)CN[C@@H](C)c2ccccc2)cc(N2CCCC2=O)c1` yielded an XC50 of 0.666 µM.

`CN1CCCc2cc(NC(=O)C=Cc3ccc(-c4ccc(F)cc4F)o3)ccc2C1` gave an XC50 of 0.783 µM.

Regarding `CS(=O)(=O)c1ccc(OCCCN(Cc2ccccc2C(F)(F)F)c2ccc(C#N)c(C(F)(F)F)c2)cc1`, the XC50 was 1.02 µM.

In turn, `O=C(N[C@@H](CC1CCCCC1)C(=O)NC1CCCc2ccccc21)c1ccc(O)c(-c2cccc(C(F)(F)F)c2)c1` (stereo not given in full) gave an XC50 of 0.6 µM.

In the case of `CC(C)NCc1ccc(-c2ccc(NC(=O)c3cccc(C#N)c3)cc2)cc1`, the XC50 came to 0.654 µM.

As to `COc1ccc2nccc([C@@H](O)CN3CCC(NCc4cc5cccc(O)c5[nH]4)CC3)c2c1`, the XC50 was 0.836 µM.

With `Clc1ccc(-c2cc(-c3csc(NCCN4CCOCC4)n3)on2)c(Cl)c1`, the XC50 stood at 0.66 µM.

On to `O=C(/C=C/c1ccc(Cl)c(Cl)c1)NC1CCN(Cc2cccc(O)c2)CC1`, for which the XC50 is 0.88 µM.

`CCCNCc1ccc(-c2ccc(CN(CCOC)C(=O)c3ccccc3)cc2)nc1` came in with an XC50 of 0.876 µM.

As to `Cc1ccc(Nc2nc(C)cc(NC3CC3)n2)cc1`, the XC50 was determined as 1.22 µM.

Consider `Clc1ccc(C2CCN(CCCOc3ccc4c(c3)CCNCC4)CC2)cc1`, for which the XC50 amounted to 0.754 µM.

`CCc1cn2c3c(cc(C(=O)N[C@@H](Cc4ccccc4)[C@H](O)CNC4CC4)cc13)N(CC)S(=O)(=O)CC2` yielded an XC50 of 0.112 µM.

For the molecule `O=C(Nc1cccc(CN2CCCN(Cc3ccc(O)cc3)CC2)c1)c1ccc(Br)cc1`, the XC50 is 0.8 µM.

Regarding `CC(C)C[C@H]1C(=O)N[C@H](C2Cc3ccccc3C2)C(=O)N1[C@@H](C(=O)Nc1ccccc1OCc1ccccc1)c1ccc(F)cc1F`, the XC50 worked out at 1.02 µM.

Take `c1cc(CN2CCCCC2)cc(-c2ccc(-c3nc4ccccc4[nH]3)s2)c1`: the XC50 was found to be 0.869 µM.

As to `CCN(CC)CCNc1ccnc2[nH]c3ccc(I)cc3c12`, the XC50 worked out at 0.23 µM.

For the molecule `CCN(CC)/C(=N\CCCCCC/N=C(\NC(=N)c1ccc(Cl)cc1)N(CC)CC)NC(=N)c1ccc(Cl)cc1`, the XC50 was determined as 0.381 µM.

`CC(C)(C)C1CC(=O)CC2C(=O)N(C3CCCCC3)C(=O)C21` (stereo not given): the XC50 was 0.421 µM.

`CCOc1ccc(C(=O)Nc2cc3c(c(C(F)(F)F)c2)CCNC3)cc1Cl` registered an XC50 of 1.06 µM.

`COc1cc(Cc2cnc(N)nc2N)ccc1OCc1ccc(NC(C)=O)cc1` returned an XC50 of 0.368 µM.

`O=C(/C=C/c1ccc(C(F)(F)F)cc1)NCCCCCN1CCN(C(=O)Nc2ccc(F)c(Cl)c2)CC1` came in with an XC50 of 1.21 µM.

As to `O=C(Nc1ccc(OC2CCN(Cc3ccsc3)C2)c(Cl)c1)c1ccsc1` (stereo not given), the XC50 came out at 1.02 µM.

`Cc1cc(C)c(NC(=O)NC2CCN(CCCCCNC(=O)/C=C/c3ccc(Cl)c(Cl)c3)CC2)c(C)c1` had an XC50 of 0.797 µM.

Turning to `CC(C)(C)c1ccc(CN2CCC(NC(=O)c3ccc(-c4ccccc4Cl)s3)CC2)cc1`, the XC50 worked out at 1.35 µM.

Molecule `CC(C)COc1ccc(Cl)cc1Cc1ccc(-c2nc3ccc(F)cc3[nH]2)o1` showed an XC50 of 0.854 µM.

Consider `Clc1ccc2c(NCCCCCCCCNc3ccnc4cc(Cl)ccc34)ccnc2c1`, for which the XC50 came out at 0.482 µM.

The molecule `O=C(NC(c1ccccc1)c1ccc2cccnc2c1O)c1ccccc1` (stereo not given) yielded an XC50 of 0.428 µM.

Take `O=C(C=Cc1ccc(F)cc1)NC1CCC(CCN2CCc3ccc(-c4cnccn4)cc3CC2)CC1` (stereo not given): the XC50 stood at 0.695 µM.

The molecule `CCCOc1cccc(C(=O)N[C@@H](Cc2ccccc2)[C@H](O)CNCc2ccccc2OC)c1` registered an XC50 of 0.883 µM.

For the molecule `CCNC(=O)NC1CCN(Cc2c(-c3cccs3)nc3ccccc3c2C(=O)N[C@@H](C)C2CCCCC2)CC1`, the XC50 was found to be 0.0913 µM.

Molecule `CC(Cc1ccc(OCCOc2ccccc2)cc1)NCC(O)c1cccc(Cl)c1` (stereo not given) registered an XC50 of 1.04 µM.

As to `CC(C)N1CCN(C(CN2CCN(CCCOc3cccc(F)c3)CC2)c2ccc(F)cc2)CC1` (stereo not given), the XC50 amounted to 0.912 µM.

The molecule `CCCN1CCN(CC(O)CNC(=O)Nc2ccc(Cl)cc2)CC1` (stereo not given) came in with an XC50 of 0.0969 µM.

The molecule `Fc1cccc(C=NNc2ccnc3cc(Cl)ccc23)c1` yielded an XC50 of 0.528 µM.

`O=C(NC1CC1c1ccccc1)N(CCCn1ccnc1)Cc1csc(-c2ccc(CNCc3ccccc3)cc2)n1` (stereo not given) registered an XC50 of 0.854 µM.

In turn, `Cc1cc(O)c(CN2CCN(Cc3cccs3)CC2)cc1C(C)C` displayed an XC50 of 0.717 µM.

On to `NC1CCN(c2nc(NCCCc3ccc(O)cc3)nc(NCc3ccccc3-c3ccc(C(F)(F)F)cc3)n2)CC1`, for which the XC50 was 0.727 µM.

With `CCc1cccc(-n2c(=O)c3cccnc3n2CC(=O)NCc2ccccc2Cl)c1`, the XC50 came to 0.741 µM.

`COc1ccc(-c2cccc(NC(=O)c3cccc(Cl)c3)c2)cc1CN1CCN(C)CC1` returned an XC50 of 0.76 µM.

The molecule `COc1c(C2=CCN(CCCCNC(=O)c3ccc(-c4ccc(C#N)cc4)cc3)CC2)ccc2c1CCCC2` gave an XC50 of 0.911 µM.

On to `CC/N=C(/NCCCCCCN/C(=N/CC)NCc1ccccc1)NCc1ccccc1`, for which the XC50 is 0.702 µM.

As for `O=C(Nc1ccc(Cl)cc1)c1ccc(CN2CCCN(Cc3cccc(O)c3)CC2)cc1`, the XC50 was determined as 0.388 µM.

In the case of `CCCCCCN1CCN(Cc2cccc(NC(=O)c3cc4ccccc4s3)c2)CC1`, the XC50 was 0.912 µM.

`O=C(NCCCN1CCCC1=O)c1cnc(N2CCC(Oc3ccccc3)CC2)c(Cl)c1` showed an XC50 of 0.305 µM.

`O=C(C=Cc1ccc(-c2nc3ccccc3[nH]2)cc1)NC1CCN(Cc2ccccc2)CC1` showed an XC50 of 0.74 µM.

Turning to `O=C(Nc1ccc(-c2nc3ccccc3[nH]2)cc1)c1ccc(-c2cccc([N+](=O)[O-])c2)o1`, the XC50 was 0.267 µM.

`CN(C)c1ccc(-c2csc(C(=O)NC3CCN(CCC(C)(C)C)C3)c2)cc1` (stereo not given) came in with an XC50 of 0.971 µM.

`Nc1ccc2c(N)c3ccccc3nc2c1`: the XC50 was determined as 0.812 µM.

Regarding `O=C(/C=C/c1ccc(Cl)c(Cl)c1)NCCCCCCN1CCCN(C(=O)Nc2cc(Cl)cc(Cl)c2)CC1`, the XC50 came to 0.78 µM.

In the case of `O=C(NC1CCC(CN2CCC(c3c[nH]c4ccccc34)CC2)CC1)c1cc(-c2cccc(Cl)c2)n(-c2ccc(Cl)cc2Cl)n1` (stereo not given), the XC50 was determined as 1.08 µM.

With `COc1ccc(Nc2nccc(N3CCC(NC(=O)c4cccc(C#N)c4)C3)n2)cc1` (stereo not given), the XC50 turned out to be 0.819 µM.

Turning to `CC(C)CN(c1nc(C(=O)NNC(=O)[C@H](CC2CC2)NC(=O)c2cc3cc(OCCN(C)C)ccc3o2)cs1)C1CC1`, the XC50 is 1.03 µM.

In turn, `Cc1cc(N[C@@H](CC(C)C)C(=O)NCCCOC(C)C)nc(NCCc2ccc(F)cc2)n1` returned an XC50 of 1.25 µM.

As to `O=C1NC(C(=O)Nc2ccccc2)C(c2ccccc2)S1` (stereo not given), the XC50 was 0.168 µM.

As to `O=C(Nc1ccc(Cn2ncc(N3CCCNCC3)c(Cl)c2=O)cc1)Nc1cccc(C(F)(F)F)c1`, the XC50 was determined as 0.64 µM.

On to `Brc1cc(Br)c2c(c1)C(NCCCNC1CCNc3c(Br)cc(Br)cc31)CCN2` (stereo not given), for which the XC50 was 0.823 µM.

In turn, `CCCC1N=C(N)N=C(N)N1c1ccccc1` (stereo not given) registered an XC50 of 0.823 µM.

In the case of `COc1cccc(CNC[C@@H](O)[C@H](Cc2ccccc2)NC(=O)c2cc(OC(C)C)cc(N3CCCCS3(=O)=O)c2)c1`, the XC50 worked out at 0.73 µM.

In turn, `O=C(NC1CCN(Cc2cccc(C(F)(F)F)c2)CC1)c1ccc(-c2cccc(C(F)(F)F)c2)s1` registered an XC50 of 1.01 µM.

Molecule `CN(c1ccc2c(c1)nc(Nc1ccc(Cl)cc1)n2C)c1ccnc(Nc2ccc(CS(C)(=O)=O)cc2)n1` registered an XC50 of 0.758 µM.

The molecule `COc1ccc(CCC(C)(C)NCC(O)c2cccc(C(F)(F)F)c2)cc1` (stereo not given) gave an XC50 of 0.48 µM.

`CC(=O)C1(c2ccccc2)CCN(CCC2(c3ccc(Cl)c(Cl)c3)CN(C(=O)CC(C)C)CCO2)CC1` (stereo not given) yielded an XC50 of 0.644 µM.

As for `CCC(CC)N1CCN(CC(=O)Nc2ccc([N+](=O)[O-])cc2C(=O)Nc2cccc(OC)c2)CC1`, the XC50 came to 0.866 µM.

Take `CC(=O)Nc1ccc(CNCCc2ccc(NC(=O)c3cc(Cl)cc(Cl)c3)cc2)cc1`: the XC50 was 0.684 µM.

As to `COc1ccc2nc3cc(Cl)ccc3c(NCCNCC(O)CO)c2n1` (stereo not given), the XC50 worked out at 0.152 µM.

As for `O=C(/C=C/c1ccc([N+](=O)[O-])cc1)N1CCC(NS(=O)(=O)c2ccc(Br)cc2)CC1`, the XC50 worked out at 1.05 µM.

`CCCc1ccc(NC(=O)c2ccc(CN3CCCN(CC4CCCCC4)CC3)cc2)cc1` displayed an XC50 of 0.524 µM.

`CC1(C)NC(N)=NC(=N)N1OCCCc1cc(Cl)c(Cl)cc1Cl` displayed an XC50 of 0.0032 µM.

In turn, `Cc1cc(CNCC(CCNc2cc(=O)c3ccccc3[nH]2)NCc2cc(Br)cc(Br)c2)oc1C` (stereo not given) gave an XC50 of 0.894 µM.

Regarding `O=C(Nc1cccc(-c2cccc(-c3nc4cc(F)ccc4[nH]3)c2)c1)c1c[nH]cn1`, the XC50 was found to be 0.459 µM.

`Fc1ccc2[nH]c(-c3ccc(-c4ccc(CNCc5ccccc5)cc4)cc3)nc2c1` came in with an XC50 of 0.284 µM.

`c1ccc(CN2CCC(NCc3ccc(-c4cccc(CNC5CCCC5)c4)cc3)CC2)cc1` returned an XC50 of 0.339 µM.

Molecule `O=C(NCC1CCC(C(=O)NC2CCCc3ccccc32)CC1)c1ccc(O)c(-c2cccc([N+](=O)[O-])c2)c1` (stereo not given) showed an XC50 of 0.942 µM.

Regarding `O=S(=O)(NCCN1CCCC1)c1ccc(-c2ccc(CNCc3ccccc3)cc2)cc1F`, the XC50 was 1.29 µM.

In turn, `Cc1cccc2nc(-c3ccc(-c4ccc(NC(=O)Nc5ccsc5)cc4)cc3)[nH]c12` had an XC50 of 0.171 µM.

In turn, `COCCNCc1cccc(-c2ccc3c(Nc4ccc(F)cc4Cl)ccnc3c2)c1` returned an XC50 of 0.68 µM.

Values taken from ChEMBL document CHEMBL1157539, “Thousands of chemical starting points for antimalarial lead identification” (Nature, 2010).
